melting point | Structure (SMILES)
104 to 105 °C | COc1nc(N(C)C)nc(CCCCCCCCCCO)c1O
47 to 49 °C | CCCCCc1c(C(C)C)nc(C(C)C)c(CO)c1-c1ccc(OC)cc1
141 °C | CCN(CC)C(=O)Nc1ccc(Oc2ccc3sncc3c2)c(Cl)c1
53 to 55 °C | CCOCCCOC(C)Cc1ccc(-c2ccc(O)cc2)cc1 (single isomer, unassigned; (-))
240 °C | CCCCCCCCCCCCCCCCC(C(=O)NC1=NN(c2ccccc2)C(=O)C1C)S(=O)(=O)O (stereo not drawn)
128 to 132 °C | CCCCCCCCCCCc1nc(N)n[nH]1
202 to 204 °C | CCCc1[nH]c(=O)oc1-c1ccnc(-c2ccccc2)c1
115 to 116 °C | COc1cc([N+](=O)[O-])c2ncccc2c1OCc1ccc(Cl)cc1
156 to 157 °C | COc1cc(COc2nn(-c3ccccc3)cc2/C=C/S(C)=O)ccc1OCc1nc(-c2ccco2)oc1C (stereo not drawn)
116 to 118 °C | O=C(O)CCCCCCc1nc2c(F)c(F)cc(F)c2s1
137 to 138 °C | CCOC(=O)/C=C/C=C/c1ccc(OCc2nc(-c3ccccc3)oc2C)cc1
> 300 °C | O=C(O)c1ccc(-c2nnc(-c3ccc(C(F)(F)F)cc3)o2)cc1
310 °C | Cc1c(C#N)c(N)n(-c2ccc([N+](=O)[O-])cc2)c1C
122 to 125 °C | Cn1c(C(F)(F)F)c(-c2ccc(C[C@H](NC(=O)c3c(F)cccc3C(F)(F)F)C(=O)O)cc2)c(=O)n(C)c1=O
170 to 171 °C | CC1COP(=O)(Cc2ccc([N+](=O)[O-])cc2)OC1 (stereo not drawn)
106 °C | Clc1ccc(C(c2ccccc2)N2CCN(CCCn3cnc4ccccc43)CC2)cc1 (stereo not drawn)
110 to 114 °C | CCOc1ccn(C2OC(CO)C(O)C2O)c(=O)n1 (stereo not drawn)
167 °C | N=C(N)Nc1nc2ccccc2n1Cc1ccccc1
> 300 °C | CC1CC(=O)NN=C1c1ccc2c(c1)OCC(=O)N2 (stereo not drawn)
105 to 107 °C | CCOC(=O)c1ccc(C)c(NC(=O)C2=C(C)OCCS2)c1
216 °C | Cc1onc(-c2ccc(-c3cscn3)cc2)c1-c1ccc(S(N)(=O)=O)c(F)c1
90 to 91 °C | NNc1ccc(Cl)cc1Cl
186 to 188 °C | O=C1c2ccccc2C(=O)N1OCc1cnn(C(c2ccccc2)(c2ccccc2)c2ccccc2)c1
189 to 190 °C | C#Cc1cccc(Nc2ncnc3[nH]cc(-c4cccc([N+](=O)[O-])c4)c23)c1

melting point | Structure (SMILES)
169 to 172 °C | CCn1cc(C(=O)NCc2ccc(Cl)cc2)c(=O)c2cc(CO)sc21
178 to 181 °C | Nc1ccc(Oc2ccc(C(c3ccc(Oc4ccc(N)c(O)c4)cc3)(C(F)(F)F)C(F)(F)F)cc2)cc1O
236 to 238 °C | CNc1nc2c(Cc3cccnc3)c(C)c(O)c(C)c2s1
180 to 182 °C | CC(C)S(=O)(=O)n1c(N)nc2ccc(C(=CBr)c3ccccc3)cc21
97 to 98 °C | COc1ccc2c(c1)c(CO)nn2Cc1ccccc1
52 to 54 °C | CCCOC(C)Cc1ccc(-c2ccc(O)cc2)cc1 (single isomer, unassigned; (-))
112 to 113 °C | COc1cccc(CCSc2c(O)cc(-c3ccccc3)oc2=O)c1
40 °C | O=C(OCCCCl)c1ccc([N+](=O)[O-])cc1[N+](=O)[O-]
102 to 104 °C | CN1CCCCc2cc(Nc3ncc(Cl)c(N[C@@H]4CCCC[C@H]4NS(C)(=O)=O)n3)ccc21
111 to 114 °C | COCOCC1(C)Cc2c(C)c(N3CCN(c4ccc(OC)cc4)CC3)c(C)c(C)c2O1 (stereo not drawn)
300 °C | Cc1cc2cc(C#N)c(=O)[nH]c2cc1C
162 to 164 °C | COC(=O)C(=O)Nc1ccc(Cl)cc1
143 to 144 °C | CCCC(=CC=CC(C)=CC(=O)O)c1cc(C(C)(C)C)cc(C(C)(C)C)c1
210 to 214 °C | Cc1cc(NCCO)c2[nH]nc(Br)c2n1
55 to 56 °C | OCCOc1csc2ccccc12
165 to 167 °C | CC(NC(=O)c1cc(Cl)ccc1NC(=O)C1CC(O)=NN1c1ncccc1Cl)C1CC1 (stereo not drawn)
92 to 94 °C | CC(C(=O)O)c1ccc(CC(Cl)(Cl)Cl)c(F)c1 (stereo not drawn)
139 to 142 °C | CCc1nc2c(C)cc(C)nc2n1Cc1ccc(-c2ccccc2C(=O)NN)cc1
211 to 212 °C | Cc1c(C(=O)N(C)c2ccc(N3CCC(O)CC3)c(C#N)c2)cnn1-c1ccc(F)cc1
90 to 91 °C | Cc1cc(-n2c(C)ccc2C)c(C)cc1N=CN(C)C
116 to 118 °C | CCCOc1ccc(NC=C(C(=O)OCC)C(=O)OCC)nc1C
97 °C | CC(=O)/C(=C/I)c1ccccc1
164 to 166 °C | CC1=C(C(=O)OCC=Cc2ccccc2)C(c2ccccc2C(F)(F)F)c2c(ccnc2OC(C)C)N1 (stereo not drawn)
163 to 164 °C | Cc1ccccc1NC(=O)CN1C[C@@H](C)N(S(=O)(=O)c2cccc([N+](=O)[O-])c2)[C@@H](C)C1

melting point | Structure (SMILES)
210 °C | COc1ccc(CN2C(=O)C(C)(c3cc(NS(C)(=O)=O)ccc3Cl)c3cc(Cl)ccc32)c(OC)c1 (stereo not drawn)
161 to 163 °C | COc1cc2c(cc1OC)C(C)=[N+]([O-])CN2
241 to 243 °C | Cc1nc2c(c3c1[nH]c1ccccc13)CCC(C)(C)C2
150 to 151 °C | CCCCCCCNC(=O)Nc1ccc(OC)cc1NC(=O)c1cc(C(C)(C)C)c(O)c(C(C)(C)C)c1
85 to 86 °C | CC1CCCN1CCCN1C(=C(C#N)C#N)N(CCN2CCCCC2)c2ccccc21 (stereo not drawn)
235 to 237 °C | O=[N+]([O-])c1cnn2c1-c1ccccc1NC2c1ccccc1O (stereo not drawn)
180 to 181 °C | O=C(O)C1=Cc2cc(OCc3ccccc3)c(OCc3ccccc3)cc2CCC1
284 to 286 °C | O=c1[nH]c2cc(Cl)ccc2c(O)c1-c1ccc(/C=C\c2ccccc2)cc1
68 to 70 °C | COC(=O)C=CC=CCSc1ccc(N(C)C)cc1
132 to 134 °C | CC(O)(C(=O)Nc1ccc(C(=O)c2ccccc2)c(F)c1)C(F)(F)F (stereo not drawn)
134 to 135 °C | CC(C)(C)c1ccc(Nc2nnc(Cc3ccc(O)nc3)c3ccccc23)cc1
50 to 54 °C | CCN1CCCC1CNC(=O)c1cc(N(C#N)S(C)(=O)=O)ccc1OC (stereo not drawn)
175 °C | CCOC(=O)COc1ccc([N+](=O)[O-])cc1C1C(C(=O)OCC)=C(C)NC(C)=C1C(=O)OCC
62 to 63 °C | COC(=O)c1ccc(OCC2CCCCC2)cc1
53 to 55 °C | COC(=O)c1cc(Cl)c(C)c(Br)c1
112 to 117 °C | CCOC(=O)C(C#N)=Cc1ccc(OC)c2c1CC(C)(C)O2
104 °C | CCOc1ccc(N)c(S)c1
128 to 130 °C | CCCCOC(=O)c1cc(Oc2ccc3c(C(=O)Nc4cccc(C(F)(F)F)c4)cccc3c2)ccn1
132 to 134 °C | CCc1cccc(C)c1CNc1cc(Br)cc2c1ncn2C
165 to 168 °C | O=C(c1ccccc1)c1[nH]c2cc(Cl)ccc2c1NC(=O)C(F)(F)F
211 °C | NS(=O)(=O)c1cccc(-c2cccc(-c3nc(-c4ccc(F)c(F)c4)cc(C(F)(F)F)n3)c2)c1
149 to 151 °C | CC1(C)CON(Cc2ccc(NC(=O)C3=C(C(=O)O)CCCC3)cc2Br)C1=O
207 °C | O=C(O)CCCCN1C(=O)NC(=O)C1(c1ccccc1)c1ccccc1
109 to 112 °C | Cc1nc2ccc3c(c2o1)OC(CN1CCCCC1)CO3 (stereo not drawn)

melting point | Structure (SMILES)
149 to 151 °C | Cc1nc(-n2ccc(C3CC3)cc2=O)sc1C(=O)NCc1ccccc1
157 to 159 °C | COCc1cc2cc(CN3CCOCC3)cc3c(=O)c(C(=O)NCc4ccc(Cl)cc4)cn1c23
370 to 384 °C | O=C(O)CCc1c(C=C2C(=O)Nc3ccc(Cl)cc32)[nH]c2c1CCCC2
131 to 133 °C | Cc1ccc(C(=O)c2cc(CN3CCOCC3)c(O)c(C(C)(C)C)c2)cc1
210 °C | CCNC(=O)c1nnc(S)o1
225 to 227 °C | Cc1cc(Nc2ccc(Cl)cc2)nc(-n2cc3ccccc3n2)n1
139 to 140 °C | CSc1noc(-c2ccc(OCCOc3ccc(C)cc3)cc2)c1C#N
285 to 287 °C | CCOC(=O)c1c(C)cc2c(c1C)c(=O)n(-c1ccccc1Cl)c(=O)n2CC(N)=O
130 to 135 °C | O=C(NC(=S)NC1Cc2ccccc2C1)c1ccccc1
136 to 139 °C | CC(=NOCc1ccccc1)c1cccc(S(N)(=O)=O)c1
266 °C | N#Cc1ccc(CC23CCCN2C(=O)N(c2cc(Cl)cc(-n4cccc4)c2)C3=O)cc1 (stereo not drawn)
238 to 240 °C | CC(=O)Nc1sc([N+](=O)[O-])cc1C(=O)O
94 to 95 °C | CCOC(=O)/C(=N\OC1(C)CCCC1)c1csc(N)n1
177 to 179 °C | CC(C)(C)c1cc(CCc2ccccc2NC(=O)NCCc2ccc(F)cc2)cc(C(C)(C)C)c1O
186 to 187 °C | Cc1c(NC(=O)c2ccc(-c3ccc(Cl)s3)cc2)ccc2cc(CN3CCCCCC3)cnc12
94 to 95 °C | O=C1C[C@@H](O)C[C@H](/C=C/c2ccccc2)O1 (relative stereo)
250 to 252 °C | COC(=O)c1sccc1NC(=O)c1ccccc1SSc1ccccc1C(=O)Nc1ccsc1C(=O)OC
88 to 89.5 °C | COC(=O)/C=C/C=C(\c1ccccc1)c1ccc(OC)cc1
92 to 93 °C | COC(=O)c1ccc(-c2cc(-c3cc4c(cc3C)CCCC4(C)C)[nH]n2)cc1
210 to 212 °C | Nc1nc2ccccc2n1-c1ccc(-c2ccco2)cc1
110 to 112 °C | O=C(c1ccc(Br)cc1)N(C1CCCCC1)C1CCCC1

Structure (SMILES) | melting point
COCc1noc(-c2ncn3c2CN(C)C(=O)c2cc(F)ccc2-3)n1 | 192 to 194 °C
CCOc1c(N2CCNCC2)c(F)cc2c(=O)c(C(=O)O)cn(C3CC3)c12 | 119 to 122 °C
CN1CCC(c2n[nH]c3ccc([N+](=O)[O-])cc23)CC1 | 237 to 239 °C
COC(=O)[C@@H]1C[C@H](OC(=O)c2cccs2)C(=O)[C@H]2[C@@]1(C)CC[C@H]1C(=O)O[C@H](c3ccoc3)C[C@]21C | 143 to 145 °C
O=C1c2ccccc2C(=O)N1Cc1noc(-c2ncn3c2[C@@H]2CCN2C(=O)c2c-3ccc(F)c2Cl)n1 | 292 to 294 °C

Reference: a melting point compilation (Tetko et al.; mined from patent text by program, amines drawn as free bases though some values may be those of a salt)
